# Reference: ChEMBL document CHEMBL1201862, “PubChem BioAssay data set” (2004)
#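 The compound was tested at five concentrations on cells cultured in 96-well plates, with a 48-hour exposure period. GI50 marks 50% less growth.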 The source made the active and inactive calls. Rule as the data show it: active = GI50 up to about 1.1 µM and inactive = higher.
# Key:
# Test in all cases: inhibition of tumour cell growth, NCI panel, 48 h
# KM12 = system: KM12
# HOP-62 = system: HOP-62
# T47D = system: T47D
# HT-29 = system: HT-29
# CAKI-1 = system: CAKI-1
# OVCAR-8 = system: OVCAR-8
# SF-539 = system: SF-539
# SK-MEL-5 = system: SK-MEL-5
# OVCAR-4 = system: OVCAR-4
# UACC-257 = system: UACC-257
# ACHN = system: ACHN
# CCRF-CEM = system: CCRF-CEM
# COLO 205 = system: COLO 205
# NCI-H23 = system: NCI-H23
# Hs-578T = system: Hs-578T
# SK-MEL-2 = system: SK-MEL-2
# SR = system: SR
# SK-MEL-28 = system: SK-MEL-28
# PC-3 = system: PC-3
# SF-295 = system: SF-295
# SNB-75 = system: SNB-75
# SK-OV-3 = system: SK-OV-3
# DU-145 = system: DU-145
# TK-10 = system: TK-10
# UACC-62 = system: UACC-62
# OVCAR-3 = system: OVCAR-3
# U-251 = system: U-251
# K562 = system: K562
# A549 = system: A549
# HCC 2998 = system: HCC 2998
# MDA-MB-435 = system: MDA-MB-435
# HCT-15 = system: HCT-15
# 786-0 = system: 786-0
# BT-549 = system: BT-549
# A498 = system: A498
# NCI-H522 = system: NCI-H522
# SW-620 = system: SW-620
# MOLT-4 = system: MOLT-4
# HOP-92 = system: HOP-92
# M14 = system: M14
# NCI/ADR-RES = system: NCI/ADR-RES
# OVCAR-5 = system: OVCAR-5
# UO-31 = system: UO-31
# NCI-H226 = system: NCI-H226
# HL-60 = system: HL-60
# RXF 393 = system: RXF 393
# SF-268 = system: SF-268
# Malme-3M = system: Malme-3M
# NCI-H460 = system: NCI-H460
# SN12C = system: SN12C
# MCF7 = system: MCF7
# LOX IMVI = system: LOX IMVI
# SNB-19 = system: SNB-19
# HCT-116 = system: HCT-116
# MDA-MB-231 = system: MDA-MB-231
# RPMI-8226 = system: RPMI-8226
# MDA-N = system: MDA-N
# IGROV-1 = system: IGROV-1
# EKVX = system: EKVX
compound,measurement,setting,value
CC(N/N=C(\S)N1CCN(c2ccccn2)CC1)c1nccc2ccccc12 (stereo not drawn),GI50,KM12,3.16 µM (inactive)
same,GI50,HOP-62,2.86 µM (inactive)
same,GI50,T47D,< 0.01 µM (active)
same,GI50,HT-29,< 0.01 µM (active)
same,GI50,CAKI-1,1.61 µM (inactive)
same,GI50,OVCAR-8,0.104 µM (active)
same,GI50,SF-539,0.646 µM (active)
same,GI50,SK-MEL-5,0.897 µM (active)
same,GI50,OVCAR-4,0.678 µM (active)
same,GI50,UACC-257,0.0318 µM (active)
same,GI50,ACHN,0.838 µM (active)
same,GI50,CCRF-CEM,< 0.01 µM (active)
same,GI50,COLO 205,0.119 µM (active)
same,GI50,NCI-H23,1.79 µM (inactive)
same,GI50,Hs-578T,12.9 µM (inactive)
same,GI50,SK-MEL-2,4.23 µM (inactive)
same,GI50,SR,< 0.0218 µM (active)
same,GI50,SK-MEL-28,2.61 µM (inactive)
same,GI50,PC-3,0.589 µM (active)
same,GI50,SF-295,1.3 µM (inactive)
same,GI50,SNB-75,6.43 µM (inactive)
same,GI50,SK-OV-3,0.241 µM (active)
same,GI50,DU-145,1.32 µM (inactive)
same,GI50,TK-10,1.64 µM (inactive)
same,GI50,UACC-62,0.305 µM (active)
same,GI50,OVCAR-3,< 0.0121 µM (active)
same,GI50,U-251,0.385 µM (active)
same,GI50,K562,< 0.01 µM (active)
same,GI50,A549,1.65 µM (inactive)
same,GI50,HCC 2998,0.769 µM (active)
same,GI50,MDA-MB-435,1.66 µM (inactive)
same,GI50,HCT-15,0.641 µM
same,GI50,786-0,0.693 µM (active)
same,GI50,BT-549,10.4 µM (inactive)
same,GI50,A498,5.71 µM (inactive)
same,GI50,NCI-H522,0.0782 µM (active)
same,GI50,SW-620,0.316 µM (active)
same,GI50,MOLT-4,< 0.01 µM (active)
same,GI50,HOP-92,0.957 µM (active)
same,GI50,M14,0.045 µM (active)
same,GI50,NCI/ADR-RES,< 0.0216 µM (active)
same,GI50,OVCAR-5,0.453 µM (active)
same,GI50,UO-31,1.06 µM (active)
same,GI50,NCI-H226,1.83 µM (inactive)
same,GI50,HL-60,< 0.01 µM (active)
same,GI50,RXF 393,0.908 µM (active)
same,GI50,SF-268,0.514 µM (active)
same,GI50,Malme-3M,1.03 µM (active)
same,GI50,NCI-H460,0.593 µM (active)
same,GI50,SN12C,0.927 µM (active)
same,GI50,MCF7,1.07 µM (active)
same,GI50,LOX IMVI,0.804 µM (active)
same,GI50,SNB-19,2.56 µM (inactive)
Cc1cn([C@@H]2C[C@](C)(CO)N(C)O2)c(=O)[nH]c1=O,GI50,KM12,> 100 µM (inactive)
same,GI50,HOP-62,> 100 µM (inactive)
same,GI50,HT-29,> 100 µM (inactive)
same,GI50,CAKI-1,> 100 µM (inactive)
same,GI50,OVCAR-8,> 100 µM (inactive)
same,GI50,SK-MEL-5,> 100 µM (inactive)
same,GI50,OVCAR-4,> 100 µM (inactive)
same,GI50,UACC-257,> 100 µM (inactive)
same,GI50,ACHN,> 100 µM (inactive)
same,GI50,CCRF-CEM,> 100 µM (inactive)
same,GI50,COLO 205,> 100 µM (inactive)
same,GI50,NCI-H23,> 100 µM (inactive)
same,GI50,Hs-578T,> 100 µM (inactive)
same,GI50,SK-MEL-2,> 100 µM (inactive)
same,GI50,SR,> 100 µM (inactive)
same,GI50,SK-MEL-28,> 100 µM (inactive)
same,GI50,PC-3,> 100 µM (inactive)
same,GI50,SF-295,> 100 µM (inactive)
same,GI50,HCT-116,> 100 µM (inactive)
same,GI50,MDA-MB-231,> 100 µM (inactive)
same,GI50,SNB-75,8.53 µM (inactive)
same,GI50,SK-OV-3,> 100 µM (inactive)
same,GI50,DU-145,> 100 µM (inactive)
same,GI50,TK-10,> 100 µM (inactive)
same,GI50,UACC-62,> 100 µM (inactive)
same,GI50,U-251,> 100 µM (inactive)
same,GI50,K562,> 100 µM (inactive)
same,GI50,A549,> 100 µM (inactive)
same,GI50,HCC 2998,> 100 µM (inactive)
same,GI50,MDA-MB-435,> 100 µM (inactive)
same,GI50,HCT-15,> 100 µM
same,GI50,786-0,> 100 µM (inactive)
same,GI50,BT-549,> 100 µM (inactive)
same,GI50,RPMI-8226,> 100 µM (inactive)
same,GI50,A498,> 100 µM (inactive)
same,GI50,NCI-H522,> 100 µM (inactive)
same,GI50,SW-620,> 100 µM (inactive)
same,GI50,MDA-N,> 100 µM (inactive)
same,GI50,HOP-92,> 100 µM (inactive)
same,GI50,IGROV-1,> 100 µM (inactive)
same,GI50,M14,> 100 µM (inactive)
same,GI50,NCI/ADR-RES,> 100 µM (inactive)
same,GI50,OVCAR-5,> 100 µM (inactive)
same,GI50,UO-31,> 100 µM (inactive)
same,GI50,NCI-H226,> 100 µM (inactive)
same,GI50,HL-60,> 100 µM (inactive)
same,GI50,RXF 393,> 100 µM (inactive)
same,GI50,SF-268,> 100 µM (inactive)
same,GI50,Malme-3M,> 100 µM (inactive)
same,GI50,NCI-H460,> 100 µM (inactive)
same,GI50,EKVX,> 100 µM (inactive)
same,GI50,SN12C,> 100 µM (inactive)
same,GI50,MCF7,> 100 µM (inactive)
same,GI50,LOX IMVI,> 100 µM (inactive)
same,GI50,SNB-19,> 100 µM (inactive)
CC(=O)N[C@@H](Cc1ccc(O)cn1)C(=O)NCc1cccc(F)c1,GI50,KM12,> 100 µM (inactive)
same,GI50,HOP-62,> 100 µM (inactive)
same,GI50,T47D,> 100 µM (inactive)
same,GI50,HT-29,> 100 µM (inactive)
same,GI50,CAKI-1,> 100 µM (inactive)
same,GI50,SF-539,> 100 µM (inactive)
same,GI50,SK-MEL-5,> 100 µM (inactive)
same,GI50,OVCAR-4,> 100 µM (inactive)
same,GI50,UACC-257,> 100 µM (inactive)
same,GI50,ACHN,> 100 µM (inactive)
same,GI50,CCRF-CEM,> 100 µM (inactive)
same,GI50,COLO 205,> 100 µM (inactive)
same,GI50,NCI-H23,> 100 µM (inactive)
same,GI50,Hs-578T,> 100 µM (inactive)
same,GI50,SK-MEL-2,> 100 µM (inactive)
same,GI50,SR,59.7 µM (inactive)
same,GI50,SK-MEL-28,> 100 µM (inactive)
same,GI50,PC-3,> 100 µM (inactive)
same,GI50,SF-295,> 100 µM (inactive)
same,GI50,HCT-116,> 100 µM (inactive)
same,GI50,SK-OV-3,> 100 µM (inactive)
same,GI50,DU-145,> 100 µM (inactive)
same,GI50,TK-10,> 100 µM (inactive)
same,GI50,UACC-62,> 100 µM (inactive)
same,GI50,OVCAR-3,> 100 µM (inactive)
same,GI50,U-251,> 100 µM (inactive)
same,GI50,K562,> 100 µM (inactive)
same,GI50,A549,> 100 µM (inactive)
same,GI50,HCC 2998,> 100 µM (inactive)
same,GI50,MDA-MB-435,> 100 µM (inactive)
same,GI50,HCT-15,> 100 µM
same,GI50,786-0,> 100 µM (inactive)
same,GI50,BT-549,> 100 µM (inactive)
same,GI50,RPMI-8226,> 100 µM (inactive)
same,GI50,A498,> 100 µM (inactive)
same,GI50,NCI-H522,> 100 µM (inactive)
same,GI50,SW-620,> 100 µM (inactive)
same,GI50,MDA-N,> 100 µM (inactive)
same,GI50,HOP-92,30.9 µM (inactive)
same,GI50,IGROV-1,> 100 µM (inactive)
same,GI50,M14,> 100 µM (inactive)
same,GI50,NCI/ADR-RES,> 100 µM (inactive)
same,GI50,OVCAR-5,> 100 µM (inactive)
same,GI50,UO-31,> 100 µM (inactive)
same,GI50,NCI-H226,> 100 µM (inactive)
same,GI50,HL-60,> 100 µM (inactive)
same,GI50,RXF 393,> 100 µM (inactive)
same,GI50,SF-268,> 100 µM (inactive)
same,GI50,Malme-3M,> 100 µM (inactive)
same,GI50,NCI-H460,> 100 µM (inactive)
same,GI50,EKVX,> 100 µM (inactive)
same,GI50,SN12C,> 100 µM (inactive)
same,GI50,MCF7,> 100 µM (inactive)
same,GI50,LOX IMVI,> 100 µM (inactive)
same,GI50,SNB-19,> 100 µM (inactive)
